This is an account of results in patent US11254686B1 (Corvus Pharmaceuticals, Inc., priority 2017, dated 2022).

The term hepatocyte CLint denotes a measure of how fast metabolising enzymes remove a compound, apart from limits set by blood flow. Low readings indicate slow turnover, high ones rapid turnover. One may read the IC50 as the concentration that gives 50% inhibition.

Series [1] can be described thus: Hepatocyte intrinsic clearance, human. In kind it is in vitro ADME. To be noted: hepatocytes.
In series [2] the target is adenosine A2A receptor (Homo sapiens (Human), UniProt P29274). Briefly: Adenosine receptor activity assay (Table 1), A2A activity. In kind it is biochemical. To be noted: read-out: Ave A2A cAMP IC50.
The target of series [3] is adenosine A3 receptor (Homo sapiens (Human), UniProt P0DMS8). Nature of the series: Adenosine receptor activity assay (Table 1), A3 cAMP. The class given is cell-based.
For series [4], the target named is adenosine A2B receptor (Homo sapiens (Human), UniProt P29275). Briefly: Adenosine receptor activity assay (Table 1), A2B activity. The class given is biochemical. To be noted: for Ratio: A2A activity to A2B activity (A2A/A2B); for IC50: read-out: Ave A2B cAMP IC50.
The nature of series [5]: Hepatocyte intrinsic clearance, rat. In kind it is in vitro ADME. To be noted: hepatocytes.
Series [6] concerns the target adenosine A1 receptor (Homo sapiens (Human), UniProt P30542). Nature of the series: Adenosine receptor activity assay (Table 1), A1 cAMP. The class given is cell-based.
Series [7] has as its system CYP 450 (isoform not given). Briefly: CYP450 inhibition at 10 μM. The class given is in vitro ADME. To be noted: read-out: CYP 450 % INH @ 10 μM.
Series [8] in a line: Liver microsome intrinsic clearance (LM CLint), human. The class given is in vitro ADME. (In general: Liver microsomes are a subcellular fraction often used to study metabolism.)
The nature of series [9]: Liver microsome intrinsic clearance (LM CLint), rat. In kind it is in vitro ADME.

Molecules are shown by their SMILES. Some results are limits rather than exact numbers.

Chain of adenosine A3 receptor (P0DMS8 whole entry): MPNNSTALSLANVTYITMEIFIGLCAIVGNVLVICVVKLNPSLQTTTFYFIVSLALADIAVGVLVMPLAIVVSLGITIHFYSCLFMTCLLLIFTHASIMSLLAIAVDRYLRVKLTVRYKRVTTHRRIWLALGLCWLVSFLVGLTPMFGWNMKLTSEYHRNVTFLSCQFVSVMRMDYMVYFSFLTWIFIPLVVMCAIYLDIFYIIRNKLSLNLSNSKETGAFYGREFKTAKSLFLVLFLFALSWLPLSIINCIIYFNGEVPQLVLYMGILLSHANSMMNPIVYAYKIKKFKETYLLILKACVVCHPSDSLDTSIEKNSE
Chain of adenosine A2B receptor (P29275 whole entry): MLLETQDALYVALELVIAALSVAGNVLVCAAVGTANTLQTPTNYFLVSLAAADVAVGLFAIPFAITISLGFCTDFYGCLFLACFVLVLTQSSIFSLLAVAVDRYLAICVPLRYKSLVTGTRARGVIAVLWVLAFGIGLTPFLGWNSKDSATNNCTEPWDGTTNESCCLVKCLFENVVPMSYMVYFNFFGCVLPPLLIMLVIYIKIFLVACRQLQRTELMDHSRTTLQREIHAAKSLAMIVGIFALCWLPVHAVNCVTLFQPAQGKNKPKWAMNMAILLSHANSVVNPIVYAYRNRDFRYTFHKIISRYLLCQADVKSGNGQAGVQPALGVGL
Chain of adenosine A1 receptor (P30542 whole entry, canonical isoform): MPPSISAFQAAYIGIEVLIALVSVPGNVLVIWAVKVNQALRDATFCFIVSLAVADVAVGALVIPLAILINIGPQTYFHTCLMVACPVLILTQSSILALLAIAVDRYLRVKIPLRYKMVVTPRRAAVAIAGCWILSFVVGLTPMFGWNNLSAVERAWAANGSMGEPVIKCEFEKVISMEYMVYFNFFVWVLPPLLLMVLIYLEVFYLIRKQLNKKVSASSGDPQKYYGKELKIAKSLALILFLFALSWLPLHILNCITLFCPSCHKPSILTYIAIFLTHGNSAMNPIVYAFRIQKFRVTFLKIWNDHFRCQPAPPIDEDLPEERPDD
Chain of adenosine A2A receptor (P29274 whole entry): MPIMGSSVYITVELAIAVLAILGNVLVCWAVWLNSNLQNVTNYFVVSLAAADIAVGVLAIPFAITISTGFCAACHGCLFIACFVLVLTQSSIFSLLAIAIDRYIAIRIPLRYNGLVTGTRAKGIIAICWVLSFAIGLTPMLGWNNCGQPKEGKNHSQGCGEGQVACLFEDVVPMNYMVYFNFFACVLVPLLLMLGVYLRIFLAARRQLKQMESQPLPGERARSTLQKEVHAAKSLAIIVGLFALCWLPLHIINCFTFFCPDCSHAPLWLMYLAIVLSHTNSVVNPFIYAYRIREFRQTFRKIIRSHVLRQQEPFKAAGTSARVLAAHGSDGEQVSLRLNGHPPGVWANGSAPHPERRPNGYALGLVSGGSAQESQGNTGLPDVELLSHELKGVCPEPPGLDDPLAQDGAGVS

Take `CNc1cc2nc(N[C@@H](C)c3cncc(F)c3)nc(C(=O)N3CCCC3)c2s1` [Example Z210, (S)-(2-((1-(5-Fluoropyridin-3-yl)ethyl)amino)-6-(methylamino)thieno[3,2-d]pyrimidin-4-yl)(pyrrolidin-1-yl)methanone]: the hepatocyte CLint is 20.3 µL/min/1e6 cells in [1] and 51.7 µL/min/1e6 cells in series [5]. The IC50 in [2] was 100 to 500 nM; in [3], 50 to 100 nM; in series [4] it was less than 10 nM; in series [6], greater than 500 nM. Further, the Ratio in [4] amounted to 162.88. For the same compound, the inhibition at 10 µM in [7] is 46%.

For the compound `CNc1cc2nc(N[C@@H](C)c3cncc(F)c3)nc(C(=O)N3CCC3)c2s1` [Example Z211, (S)-Azetidin-1-yl(2-((1-(5-fluoropyridin-3-yl)ethyl)amino)-6-(methylamino)thieno[3,2-d]pyrimidin-4-yl)methanone], the hepatocyte CLint came to 15.8 µL/min/1e6 cells in series [1] and 53.2 µL/min/1e6 cells in [5]. Moreover, the IC50 is 100 to 500 nM in series [2], 50 to 100 nM in series [3], less than 10 nM in series [4] and greater than 500 nM in [6]. The Ratio in series [4] came out at 201.82. In addition, in series [7], the inhibition at 10 µM was found to be 67%.

On to `Cc1cc2nc(N[C@@H](C)c3cccnc3)nc(C(=O)N3CCCC3)c2s1` [Example Z213, (S)-(6-Methyl-2-((1-(pyridin-3-yl)ethyl)amino)thieno[3,2-d]pyrimidin-4-yl)(pyrrolidin-1-yl)methanone], for which the hepatocyte CLint came out at 59.6 µL/min/1e6 cells in series [1] and 25.3 µL/min/1e6 cells in series [5]. The IC50 was 100 to 500 nM in [2], greater than 500 nM in series [3], less than 10 nM in series [4] and greater than 500 nM in series [6]. Further, the Ratio in series [4] was 127.82. Further, the inhibition at 10 µM in series [7] was determined as 90%.

Turning to `CNc1cc2nc(N[C@@H](C)c3cncc(F)c3)nc(C(=O)N3CC[C@@H](O)C3)c2s1` [Example Z224, (2-(((S)-1-(5-Fluoropyridin-3-yl)ethyl)amino)-6-(methylamino)thieno[3,2-d]pyrimidin-4-yl)((R)-3-hydroxypyrrolidin-1-yl)methanone], the intrinsic clearance (hepatocyte CLint) in series [1] was determined as 16.1 µL/min/1e6 cells; in [5], 4.61 µL/min/1e6 cells. Besides, the IC50 in series [2] is greater than 500 nM; in [3], 50 to 100 nM; in series [4] it was less than 10 nM; in series [6], greater than 500 nM. In series [4], the Ratio turned out to be 340.19. In series [7], the inhibition at 10 µM is 52.5%.

Turning to `C[C@H](Nc1nc(C(=O)N2CC[C@H](F)C2)c2sccc2n1)c1cncc(F)c1` [Example Z225, (2-(((S)-1-(5-Fluoropyridin-3-yl)ethyl)amino)thieno[3,2-d]pyrimidin-4-yl)((S)-3-fluoropyrrolidin-1-yl)methanone], the intrinsic clearance (hepatocyte CLint) in [1] was determined as 44.5 µL/min/1e6 cells; in series [5], 21.1 µL/min/1e6 cells. Also, the IC50 in series [2] was 100 to 500 nM; in series [3], greater than 500 nM; in series [4] it was less than 10 nM; in series [6], greater than 500 nM. Further, the Ratio in series [4] is given as 43.99. Further, the inhibition at 10 µM in series [7] is 57%.

For the compound `C[C@H](Nc1nc(C(=O)N2CCCC2)c2sccc2n1)c1cncc(Cl)c1` [Example Z231, (S)-(2-((1-(5-Chloropyridin-3-yl)ethyl)amino)thieno[3,2-d]pyrimidin-4-yl)(pyrrolidin-1-yl)methanone], the intrinsic metabolic clearance (hepatocyte CLint) in series [1] came to 72.7 µL/min/1e6 cells; in [5], 41.1 µL/min/1e6 cells. Further, the half-maximal inhibitory concentration (IC50) in series [2] is 100 to 500 nM; in series [3], greater than 500 nM; in series [4], less than 10 nM; in series [6], greater than 500 nM. Further, the Ratio in series [4] was found to be 88.17. In series [7], the inhibition at 10 µM amounted to 75%.

With `Cc1cc2nc(N[C@@H](C)c3ccccn3)nc(C(=O)N3CC[C@H](O)C3)c2s1` [Example Z282, ((S)-3-Hydroxypyrrolidin-1-yl)(6-methyl-2-(((S)-1-(pyridin-2-yl)ethyl)amino)thieno[3,2-d]pyrimidin-4-yl)methanone], the hepatocyte CLint in [1] turned out to be 4.11 µL/min/1e6 cells; in [5] it was 17.2 µL/min/1e6 cells. Also, the half-inhibitory concentration (IC50) in series [2] is greater than 500 nM; in series [3] it was greater than 500 nM; in series [4] it was 10 to 50 nM; in series [6], greater than 500 nM. Moreover, the Ratio in series [4] was determined as 77.76. For the same compound, the inhibition at 10 µM in series [7] is -18.8%.

Consider `Cc1cc2nc(N[C@@H](C)c3cccnc3)nc(C(=O)N3CCC3)c2s1` [Example Z283, (S)-Azetidin-1-yl(6-methyl-2-((1-(pyridin-3-yl)ethyl)amino)thieno[3,2-d]pyrimidin-4-yl)methanone], for which the intrinsic clearance (hepatocyte CLint) in series [1] amounted to 26.5 µL/min/1e6 cells; in [5] it was 42.7 µL/min/1e6 cells. The half-inhibitory concentration (IC50) is 100 to 500 nM in series [2], greater than 500 nM in series [3], less than 10 nM in series [4] and greater than 500 nM in series [6]. In series [4], the Ratio is given as 54.37. In addition, in series [7], the inhibition at 10 µM was 80.5%.

For `C[C@H](Nc1nc(C(=O)N2CC[C@H](CO)C2)c2sccc2n1)c1cncc(F)c1` [Example Z294, (2-(((S)-1-(5-Fluoropyridin-3-yl)ethyl)amino)thieno[3,2-d]pyrimidin-4-yl)((S)-3-(hydroxymethyl)pyrrolidin-1-yl)methanone], the hepatocyte CLint in series [1] was determined as 15.6 µL/min/1e6 cells; in [5], 17.2 µL/min/1e6 cells. In addition, the IC50 in series [2] is 100 to 500 nM; in [3] it was greater than 500 nM; in series [4], less than 10 nM; in [6] it was greater than 500 nM. The Ratio in series [4] was 84.08. Also, in series [7], the inhibition at 10 µM turned out to be 37.6%.

`Cc1cc2nc(N[C@@H](C)c3ccccn3)nc(C(=O)N3CC[C@@H](O)C3)c2s1` [Example Z298, ((R)-3-Hydroxypyrrolidin-1-yl)(6-methyl-2-(((S)-1-(pyridin-2-yl)ethyl)amino)thieno[3,2-d]pyrimidin-4-yl)methanone]: the hepatocyte CLint in series [1] turned out to be 5.35 µL/min/1e6 cells; in [5], 18.8 µL/min/1e6 cells. Besides, the half-maximal inhibitory concentration (IC50) was 100 to 500 nM in [2], greater than 500 nM in series [3], less than 10 nM in [4] and greater than 500 nM in series [6]. Further, the Ratio in series [4] came to 64.00. Further, in series [7], the inhibition at 10 µM is -13.9%.

On to `CO[C@H]1CCN(C(=O)c2nc(N[C@@H](C)c3cncc(F)c3)nc3cc(C)sc23)C1` [Example Z301, (2-(((S)-1-(5-Fluoropyridin-3-yl)ethyl)amino)-6-methylthieno[3,2-d]pyrimidin-4-yl)((S)-3-methoxypyrrolidin-1-yl)methanone], for which the intrinsic clearance (hepatocyte CLint) was 23.8 µL/min/1e6 cells in [1] and 51.7 µL/min/1e6 cells in [5]. For the same compound, the 50% inhibitory concentration (IC50) in series [2] was 100 to 500 nM; in series [3], 50 to 100 nM; in series [4], less than 10 nM; in [6], greater than 500 nM. Also, the Ratio in series [4] came out at 83.47. Also, the inhibition at 10 µM in series [7] was determined as 52%.

In the case of `C[C@H](Nc1nc(C(=O)N2CC(N)C2)c2sccc2n1)c1cncc(F)c1` [Example Z401, (S)-(3-Aminoazetidin-1-yl)(2-((1-(5-fluoropyridin-3-yl)ethyl)amino)thieno[3,2-d]pyrimidin-4-yl)methanone], the “LM CLint” value in [8] is listed as 2.64 μL/min/mg/protein; in series [9], 5.32 μL/min/mg/protein. For the same compound, in [4], the IC50 fell in the range of 10 to 50 nM.

For the compound `C[C@H](Nc1nc(C(=O)N2CC(CN)C2)c2sccc2n1)c1cncc(F)c1` [Example Z419, (S)-(3-(Aminomethyl)azetidin-1-yl)(2-((1-(5-fluoropyridin-3-yl)ethyl)amino)thieno[3,2-d]pyrimidin-4-yl)methanone], the “LM CLint” value is given as 0.69 μL/min/mg/protein in series [8] and 9.09 μL/min/mg/protein in series [9]. Further, the IC50 in series [4] was in the range of 10 to 50 nM.
